Measured values from patent US20230089247A1, “NOVEL COMPOUNDS SUITABLE FOR THE TREATMENT OF DYSLIPIDEMIA” (ZYDUS LIFESCIENCES LIMITED, priority 2019, published 2023).

Columns and labels:
High Fat Diet C57 Mice = experiment: LDL-C lowering activity in high fat diet C57 mice; type: in vivo; conditions: Mus musculus, po, 168 h; C57 mice on high fat diet; 30 mg/Kg orally once a day, 7 days treatment, blood on day 7; read-out: % Change Vs Vehicle Control in LDLc
Method: LDL-C Lowering Activity—in High Fat Diet C57 Mice
The in-vivo LDL-c lowering for test compound was tested in C57 mice which were kept on high fat diet for 4 weeks and the blood was collected by retro-orbital sinus puncture method under light ether anesthesia on day 0 (pretreatment). Animal are grouped based on LDL-c levels, after that 7 days treatment with vehicle or test compound orally at a dose of 30 mpk dose once a day was given. On completion of treatment on day 7 of the treatment the blood was collected for LDL-c and TC levels measurement.

PCSK9 = PCSK9 (Homo sapiens, UniProt Q8NBP7); experiment: BODIPY-LDL uptake assay in HepG2 cells; type: cell-based; conditions: 5 μg/ml PCSK9, BODIPY-LDL
Summary of the method: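 Compounds pre-incubated 60 min with 5 μg/ml PCSK9 (0.2% DMSO), then added to HepG2 cells for 16 h; 1 μg/ml BODIPY-LDL added in serum-free medium for 5 h. Fluorescence (Ex 485/Em 520 nm) normalized to protein; PCSK9-only wells = 0%, no-PCSK9 wells = 100% uptake, giving percent increase in LDL uptake.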

Sequence of PCSK9 (Q8NBP7 153-692): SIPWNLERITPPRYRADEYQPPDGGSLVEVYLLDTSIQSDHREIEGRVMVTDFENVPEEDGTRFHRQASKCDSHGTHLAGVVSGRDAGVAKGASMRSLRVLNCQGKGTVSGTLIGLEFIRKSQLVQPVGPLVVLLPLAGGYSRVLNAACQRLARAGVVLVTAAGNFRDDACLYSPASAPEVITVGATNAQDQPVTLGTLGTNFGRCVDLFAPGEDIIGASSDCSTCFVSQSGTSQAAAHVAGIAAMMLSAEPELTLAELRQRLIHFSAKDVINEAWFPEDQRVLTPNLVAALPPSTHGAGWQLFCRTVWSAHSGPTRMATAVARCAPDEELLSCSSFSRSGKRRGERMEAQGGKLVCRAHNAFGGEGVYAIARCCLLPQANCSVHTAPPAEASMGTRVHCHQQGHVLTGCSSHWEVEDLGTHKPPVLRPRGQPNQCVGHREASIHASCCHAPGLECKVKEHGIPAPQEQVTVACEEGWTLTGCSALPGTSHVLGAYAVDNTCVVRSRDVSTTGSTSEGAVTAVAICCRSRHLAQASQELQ

% increase in LDL Uptake (PCSK9; 1 μM test compound) [%]	% increase in LDL Uptake (PCSK9; 10 μM test compound) [%]	% increase in LDL Uptake (PCSK9; 30 μM test compound) [%]	SMILES	change in vivo at 30 mg/kg (High Fat Diet C57 Mice) [%]
25	135	130	O=C(c1ccc(C2(O)COC2)cc1)N1CCC(c2ccc(C(F)(F)F)cc2)CC1 [Example 1, (4-(3-hydroxyoxetan-3-yl)phenyl)(4-(4-(trifluoromethyl)phenyl)piperidin-1-yl)methanone]	-52 ± 4
13	86	172	COC1(c2ccc(C(=O)N3CCC(c4ccc(C(F)(F)F)cc4)CC3)cc2)COC1 [Example 2, (4-(3-methoxyoxetan-3-yl)phenyl)(4-(4-(trifluoromethyl)phenyl)piperidin-1-yl)methanone]	-45 ± 5
0	106	179	O=C(c1ccc(C2(O)COC2)cc1)N1CCN(c2ccc(C(F)(F)F)cc2)CC1 [Example 6, (4-(3-hydroxyoxetan-3-yl)phenyl)(4-(4-(trifluoromethyl)phenyl)piperazin-1-yl)methanone]	0.6 ± 9
0	73	114	OC1(c2ccc(N3CCC(c4ccc(C(F)(F)F)cc4)CC3)cc2)COC1 [Example 8, 3-(4-(4-(4-(trifluoromethyl)phenyl)piperidin-1-yl)phenyl)oxetan-3-ol]	-30 ± 8
0	273	347	O=C(c1ccc(C2(O)COC2)cc1)N1CC2CC(c3ccc(C(F)(F)F)cc3)CC2C1 (stereo not drawn) [Example 10, (4-(3-hydroxyoxetan-3-yl)phenyl)(5-(4-(trifluoromethyl)phenyl)hexahydrocyclopenta[c]pyrrol-2(1H)-yl)methanone]	-15 ± 8
6	59	116	O=C(c1ccc(C2(O)COC2)cc1)N1CC2CN(c3ccc(C(F)(F)F)cc3)CC2C1 (stereo not drawn) [Example 11, (4-(3-hydroxyoxetan-3-yl)phenyl)(5-(4-(trifluoromethyl)phenyl)hexahydropyrrolo[3,4-c]pyrrol-2 (1H)-yl)methanone]	-48 ± 5
27	86	252	O=C(c1ccc(C2(O)COC2)cc1)N1CCCC(c2ccc(C(F)(F)F)cc2)C1 (stereo not drawn) [Example 34, (4-(3-hydroxyoxetan-3-yl)phenyl)(3-(4-(trifluoromethyl)phenyl)piperidin-1-yl)methanone]	-31 ± 8
26	149	147	COC1(c2ccc(C(=O)N3CCCC(c4ccc(C(F)(F)F)cc4)C3)cc2)COC1 (stereo not drawn) [Example 39, (4-(3-methoxyoxetan-3-yl)phenyl)(3-(4-(trifluoromethyl)phenyl)piperidin-1-yl)methanone]	-29 ± 5
0	12	5	CCOC1(c2ccc(C(=O)N3CCC(c4ccc(C(F)(F)F)cc4)CC3)cc2)COC1 [Example 43, (4-(3-ethoxyoxetan-3-yl)phenyl)(4-(4-(trifluoromethyl)phenyl)piperidin-1-yl)methanone]	-27 ± 10
17	189	383	O=C(c1cccc(C2(O)COC2)c1)N1CCC(c2ccc(C(F)(F)F)cc2)CC1 [Example 47, (3-(3-hydroxyoxetan-3-yl)phenyl)(4-(4-(trifluoromethyl)phenyl)piperidin-1-yl)methanone]	-5 ± 7
4	80	129	COC1(c2ccc(C(=O)N3CCN(c4ccc(C(F)(F)F)cc4)CC3)cc2)COC1 [Example 53, (4-(3-methoxyoxetan-3-yl)phenyl)(4-(4-(trifluoromethyl)phenyl)piperazin-1-yl)methanone]	-15 ± 6
55	344	257	COC1(c2cccc(C(=O)N3CC4CN(c5ccc(C(F)(F)F)cc5)CC4C3)c2)COC1 (stereo not drawn) [Example 56, (3-(3-methoxyoxetan-3-yl)phenyl)(5-(4-(trifluoromethyl)phenyl)hexahydropyrrolo[3,4-c]pyrrol-2(1H)-yl)methanone]	-5 ± 8
6	32	53	COC1(c2ccc(C(=O)N3CC4CN(c5ccc(C(F)(F)F)cc5)CC4C3)cc2)COC1 (stereo not drawn) [Example 57, (4-(3-methoxyoxetan-3-yl)phenyl)(5-(4-(trifluoromethyl)phenyl)hexahydropyrrolo[3,4-c]pyrrol-2(1H)-yl)methanone]	-43 ± 9
25	21	43	CCOC1(c2ccc(C(=O)N3CC4CN(c5ccc(C(F)(F)F)cc5)CC4C3)cc2)COC1 (stereo not drawn) [Example 58, (4-(3-ethoxyoxetan-3-yl)phenyl)(5-(4-(trifluoromethyl)phenyl)hexahydropyrrolo[3,4-c]pyrrol-2 (1H)-yl)methanone]	-44 ± 3
0	24	159	O=C(c1cccc(C2(O)COC2)c1)N1CCC(c2ccc(C(F)F)cc2)CC1 [Example 66, (4-(4-(difluoromethyl)phenyl)piperidin-1-yl)(3-(3-hydroxyoxetan-3-yl)phenyl)methanone]	-24 ± 7.1
10	98	108	[2H]C([2H])([2H])OC1(c2ccc(C(=O)N3CCC(c4ccc(C(F)(F)F)cc4)CC3)cc2)COC1 [Example 76, (4-(3-(methoxy-d3)oxetan-3-yl)phenyl)(4-(4-(trifluoromethyl)phenyl)piperidin-1-yl)methanone]	-28 ± 7
2	33	55	O=C(c1ccc(C2(O)COC2)cc1)N1CCC(O)(c2ccc(C(F)(F)F)cc2)CC1 [Example 86, (4-hydroxy-4-(4-(trifluoromethyl)phenyl)piperidin-1-yl)(4-(3-hydroxyoxetan-3-yl)phenyl)methanone]	-28 ± 4
77	115	94	O=C(c1ccc(C2(O)COC2)cc1)N1CC=C(c2ccc(C(F)(F)F)cc2)CC1 [Example 87, (4-(3-hydroxyoxetan-3-yl)phenyl)(4-(4-(trifluoromethyl)phenyl)-5,6-dihydropyridin-1(2H)-yl)methanone]	-36 ± 5
8	4	48	O=C(c1ccc(C2(O)COC2)cc1)N1CCC(c2ccc(C(F)(F)F)cn2)CC1 [Example 212, (4-(3-hydroxyoxetan-3-yl)phenyl)(4-(5-(trifluoromethyl)pyridin-2-yl)piperidin-1-yl)methanone]	
0	0	37	COC1(c2ccc(C(=O)N3CCC(c4ccc(C(F)(F)F)nc4)CC3)cc2)COC1 [Example 213, (4-(3-methoxyoxetan-3-yl)phenyl)(4-(6-(trifluoromethyl)pyridin-3-yl)piperidin-1-yl)methanone]	
0	5	128	O=C(c1ccc(C2(O)COC2)cc1)N1CCN(c2ccc(C(F)(F)F)nc2)CC1 [Example 217, (4-(3-hydroxyoxetan-3-yl)phenyl)(4-(6-(trifluoromethyl)pyridin-3-yl)piperazin-1-yl) methanone]	
0	26	85	COC1(c2ccc(C(=O)N3CCN(c4ccc(C(F)(F)F)cn4)CC3)cc2)COC1 [Example 218, (4-(3-methoxyoxetan-3-yl)phenyl)(4-(5-(trifluoromethyl)pyridin-2-yl)piperazin-1-yl)methanone]	
4	41	15	CCOC1(c2ccc(C(=O)N3CCN(c4ccc(C(F)(F)F)cn4)CC3)cc2)COC1 [Example 219, (4-(3-ethoxyoxetan-3-yl)phenyl)(4-(5-(trifluoromethyl)pyridin-2-yl)piperazin-1-yl)methanone]	
0	28	66	COC1(c2cccc(C(=O)N3CCN(c4ccc(C(F)(F)F)cn4)CC3)c2)COC1 [Example 221, (3-(3-methoxyoxetan-3-yl)phenyl)(4-(5-(trifluoromethyl)pyridin-2-yl)piperazin-1-yl)methanone]	
